What was measured:
human subjects [1] = assay: Calibrated sound challenge: temporary threshold shift (TTS) by serial pure tone audiometry, randomized double-blinded placebo-controlled Phase 2 study; type: in vivo
Description: (§1) A study was performed to evaluate the safety and efficacy of an orally delivered candidate composition in human subjects. The candidate composition ebselen (aka. SPI-1005) was evaluated for efficacy using the methods disclosed herein. Ebselen or placebo was administered in a randomized double-blinded study to subjects, who were then exposed to a calibrated sound or noise challenge. Post-sound exposure pure tone audiometry was compared with baseline (i.e., immediately pre-sound exposure) testing to determine group mean level hearing threshold shift changes between treated and placebo groups. The single center, randomized, double-blinded, placebo-controlled study enrolled 83 subjects, all between the ages of 18 and 31. All enrolled subjects ranged from having slight hearing loss (less than or equal to 25 dB HL) to normal hearing.
Each subject was instructed to avoid non-occupational sound exposure (e.g., concerts, firearms, fireworks, power tools) during the 24-hour period preceding baseline testing and throughout the duration of the study. Vital signs (i.e., heart rate, blood pressure, respirations, temperature) were within normal limits for each subject. Subjects had conventional audiologic assessments at baseline consisting of: (a) pure tone audiometry to confirm that subjects had symmetric hearing with air conduction thresholds no worse than 25 dB HL at frequencies between 0.25 to 8 kHz bilaterally, (b) no significant threshold asymmetry (i.e. greater than 15 dB) between any subject's ears at any tested frequency,(c) no significant air-bone gaps (i.e. greater than 10 dB). Bone conduction testing with masking as conducted at screening at 250, 500, 1000, 2000, or 4000 Hz if the air-conduction threshold was greater than 15 dB HL, and (d) Type A tympanograms bilaterally, defined as a range of −140 to +40 daPa based on the 90% range for adults. Subjects with pure tone audiometry hearing thresholds>25 dB HL at any tested frequency (250, 500, 1000, 2000, 3000, 4000, 6000, and 8000 Hz) for either ear were excluded from the study.
Ebselen, or 2-phenyl-1,2-benzisoselenazol-3 (2H)-one, was selected as a candidate composition. The ebselen formulation was a capsule containing 200 mg of ebselen and 150 mg of the excipients microcrystalline cellulose, sodium croscarmellose, and magnesium sterate. Each subject received ebselen at one of three dosages (either 200 mg, 400 mg, or 600 mg) or received a placebo, delivered orally twice daily for four days, beginning two days prior to exposure to a controlled sound and continuing on the day of and on the day following the exposure to the controlled sound. The study was randomized to assign each subject to a treatment or placebo group. All subjects took 3 capsules in the morning (AM) and 3 capsules in the evening (PM) (each capsule either contained 200 mg ebselen or placebo), ideally 12 hours apart.
On Day 3 of the ebselen treatment, subjects underwent audiometric testing immediately prior to sound-exposure to establish their baseline hearing levels. Subjects listened to a 100 dBA SPL sound exposure delivered via insert earphones from a Personal Music Player (PMP, specifically an iPod®) for 4 continuous hours. The sound exposure method was similar to that discussed in Le Prell, C. et al., Ear & Hearing 33:e44-e58, 2012, hereby incorporated by reference in its entirety. The music levels were measured using Bruel & Kjaer type 4157 artificial ear couplers. Subjects listened to sound from music playlists with a choice of rock or pop music. No changes in volume or duration of the sound exposure were permitted. At 15 minutes, 75 minutes, 135 minutes, 195 minutes, 24 hours, and 1 week after sound exposure, subjects were tested for pure tone audiometric thresholds. Serial pure tone audiometry determined the incidence (greater or equal to 10 dB HL), severity (dB HL) and duration (up to 1 week post sound exposure) of the TTS. Audiometric data was collected at 250, 500, 1000, 2000, 3000, 4000, 6000, and 8000 Hz. […]

human subjects [2] = assay: Safety and tolerability of orally delivered ebselen in the Phase 2 study; type: in vivo; conditions: oral 200, 400 or 600 mg twice daily for four days; CBC, Chemistry-20, Chest X-ray
Description: as §1
Ebselen, or 2-phenyl-1,2-benzisoselenazol-3 (2H)-one, was selected as a candidate composition. […]
Side effects of the ebselen delivery were analyzed. Clinical signs and symptoms from physical exam were evaluated, such as shortness of breath, wheezing, coughing, hemoptysis, resting pulse oximetry, chest X-rays, and laboratory findings such as hematology, chemistry, and urinalysis. Exposure to ebselen was quantified from plasma by LC-MS/MS. […]

With O=c1c2ccccc2[se]n1-c1ccccc1 [ebselen, 2-phenyl-1,2-benzisoselenazol-3 (2H)-one] the “TTS at 4 kHz vs. placebo at later time points” value (human subjects [1]; 1.25, 2.25 and 3.25 hours post sound exposure, 400 mg dose group, ITT) was “significantly reduced”, the “TTS incidence (subjects with greater or equal to 10 dB HL shift in either ear)” value (human subjects [1]; 15 minutes post 100 dBA SPL 4 h sound exposure, oral twice daily for four days, 600 mg dose most effective, ITT, placebo 60%) was 20% and the “TTS averaged across all tested frequencies, or mean across 3, 4, 6 kHz or 4, 6, 8 kHz” value (human subjects [1]; 15 minutes post sound exposure, 400 mg dose most effective, ITT) was “clinically relevant reductions”. For the same molecule, the “TTS severity at 4 kHz” value (human subjects [1]; 15 minutes post sound exposure, oral twice daily for four days, 400 mg dose most effective, ITT, placebo 4.1) was 1.3 dB HL, the “Incidence of subjects that returned to baseline hearing within 24 hours” value (human subjects [1]; all ebselen treatment groups compared with placebo, FIG. 2) was “greater incidence of subjects that returned to baseline hearing within 24 hours” and the TTS duration (human subjects [1]; oral twice daily for four days, placebo 24 hrs) was 1.3 h. For the same molecule, the “Tolerability / drug-related adverse events” value (human subjects [2]) was “well-tolerated with no drug-related adverse events”.

Source: patent publication US20180161459A1, “Methods of Screening for Drugs to Prevent Noise-Induced Hearing Loss” (Sound Pharmaceuticals Incorporated, priority 2015, published 2018)
